Measured values: the supplement of paper PMC11451515

Tested on: SEM cells
Test: cell viability relative to DMSO control; higher = less cytotoxic
Settings: 48 h
Outline: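 Three leukemia lines were tested: NOMO1 and SEM at 500 cells/well and P12-Ichikawa at 1000 cells/well. Each was adapted for at least four passages in each medium and seeded in 5 μl in 1536-well plates, and library compounds in DMSO were pin-dosed from 47 μM to 0.79 nM in 11 threefold steps. After 48 h at 37°C, CellTiter-Glo One luminescence was read. Viability is a percentage relative to DMSO wells on each plate, with cell-free wells as background.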

[1] = HPLM + 10% dialyzed FBS, 0.000781 µM
[2] = HPLM + 10% dialyzed FBS, 0.00234 µM
[3] = HPLM + 10% dialyzed FBS, 0.00702 µM
[4] = HPLM + 10% dialyzed FBS, 0.0211 µM
[5] = HPLM + 10% dialyzed FBS, 0.0632 µM
[6] = HPLM + 10% dialyzed FBS, 0.19 µM
[7] = HPLM + 10% dialyzed FBS, 0.569 µM
[8] = HPLM + 10% dialyzed FBS, 1.71 µM
[9] = HPLM + 10% dialyzed FBS, 5.12 µM
[10] = HPLM + 10% dialyzed FBS, 15.4 µM
[11] = HPLM + 10% dialyzed FBS, 46.1 µM
[12] = RPMI 5 mM glucose + 10% FBS, 0.000781 µM
[13] = RPMI 5 mM glucose + 10% FBS, 0.00234 µM
[14] = RPMI 5 mM glucose + 10% FBS, 0.00702 µM
[15] = RPMI 5 mM glucose + 10% FBS, 0.0211 µM
[16] = RPMI 5 mM glucose + 10% FBS, 0.0632 µM
[17] = RPMI 5 mM glucose + 10% FBS, 0.19 µM
[18] = RPMI 5 mM glucose + 10% FBS, 0.569 µM
[19] = RPMI 5 mM glucose + 10% FBS, 1.71 µM
[20] = RPMI 5 mM glucose + 10% FBS, 5.12 µM
[21] = RPMI 5 mM glucose + 10% FBS, 15.4 µM
[22] = RPMI 5 mM glucose + 10% FBS, 46.1 µM
[23] = RPMI 5 mM glucose + 10% dialyzed FBS, 0.000781 µM
[24] = RPMI 5 mM glucose + 10% dialyzed FBS, 0.00234 µM
[25] = RPMI 5 mM glucose + 10% dialyzed FBS, 0.00702 µM
[26] = RPMI 5 mM glucose + 10% dialyzed FBS, 0.0211 µM
[27] = RPMI 5 mM glucose + 10% dialyzed FBS, 0.0632 µM
[28] = RPMI 5 mM glucose + 10% dialyzed FBS, 0.19 µM
[29] = RPMI 5 mM glucose + 10% dialyzed FBS, 0.569 µM
[30] = RPMI 5 mM glucose + 10% dialyzed FBS, 1.71 µM
[31] = RPMI 5 mM glucose + 10% dialyzed FBS, 5.12 µM
[32] = RPMI 5 mM glucose + 10% dialyzed FBS, 15.4 µM
[33] = RPMI 5 mM glucose + 10% dialyzed FBS, 46.1 µM

SMILES | cell viability [1] | cell viability [2] | cell viability [3] | cell viability [4] | cell viability [5] | cell viability [6] | cell viability [7] | cell viability [8] | cell viability [9] | cell viability [10] | cell viability [11] | cell viability [12] | cell viability [13] | cell viability [14] | cell viability [15] | cell viability [16] | cell viability [17] | cell viability [18] | cell viability [19] | cell viability [20] | cell viability [21] | cell viability [22] | cell viability [23] | cell viability [24] | cell viability [25] | cell viability [26] | cell viability [27] | cell viability [28] | cell viability [29] | cell viability [30] | cell viability [31] | cell viability [32] | cell viability [33]
COc1ccc([C@@H]2CC(=O)c3c(O)cc(O[C@@H]4O[C@H](CO[C@@H]5O[C@@H](C)[C@H](O)[C@@H](O)[C@H]5O)[C@@H](O)[C@H](O)[C@H]4O)cc3O2)cc1O | 99.2% | 101% | 93.9% | 93.2% | 113% | 48% | 110% | 116% | 125% | 108% | 123% | 105% | 86.6% | 98.4% | 93.4% | 112% | 58.5% | 107% | 91.3% | 107% | 113% | 120% | 112% | 107% | 106% | 114% | 110% | 54.7% | 127% | 114% | 132% | 137% | 119%
C=CCc1cccc(/C=N/NC(=O)CN2CCN(Cc3ccccc3)CC2)c1O | 124% | 122% | 128% | 137% | 132% | 124% | 144% | 89.4% | 103% | 29.3% | 8.81% | 124% | 114% | 124% | 122% | 131% | 114% | 131% | 105% | 95.4% | 54.8% | 8.05% |  |  |  |  |  |  |  |  |  |  | 
O=C(Cc1ccc(-c2ccc(OCCN3CCOCC3)cc2)cn1)NCc1ccccc1 | 96% | 95.9% | 106% | 67.9% | 28.9% | 22.9% | 21.6% | 20.8% | 18.9% | 15.2% | 10.5% | 79.9% | 84.5% | 87% | 57.9% | 18.9% | 12.9% | 14.8% | 13.6% | 12.2% | 4.65% | 2.89% | 93.6% | 90.8% | 93.8% | 70.8% | 30.3% | 19.1% | 22.4% | 20% | 17.3% | 9.97% | 7.04%
CC1=C(CC(=O)O)c2cc(F)ccc2/C1=C\c1ccc([S+](C)[O-])cc1 (centres undefined) | 111% | 121% | 130% | 125% | 127% | 125% | 126% | 109% | 108% | 104% | 76.7% | 96.6% | 86.7% | 98.5% | 95.8% | 90.3% | 106% | 83.6% | 90.7% | 79.6% | 71.9% | 63.4% | 126% | 118% | 119% | 118% | 130% | 115% | 105% | 107% | 95.9% | 99.8% | 74.3%
Cc1cnc(C(=O)O)c[n+]1[O-] |  |  |  |  |  |  |  |  |  |  |  | 77.1% | 88.9% | 81% | 87% | 85.7% | 92.1% | 101% | 87.3% | 99.5% | 87.8% | 72.6% | 121% | 118% | 92.7% | 112% | 135% | 126% | 133% | 128% | 120% | 114% | 99.3%
CC(O)(C#Cc1ccc2c(c1)N(c1nc(N)ncc1Cl)CC2)c1nccs1 (centres undefined) | 97.3% | 110% | 113% | 100% | 125% | 107% | 109% | 120% | 111% | 111% | 72.4% | 88.2% | 87.3% | 107% | 62.8% | 92.9% | 97.7% | 102% | 101% | 102% | 84.5% | 43.5% | 117% | 120% | 119% | 82.5% | 107% | 103% | 117% | 123% | 114% | 109% | 59.2%
Cn1cc(/C=C2\C(=O)Nc3cccnc32)c2ccccc21 | 90.8% | 104% | 113% | 117% | 125% | 121% | 115% | 111% | 112% | 44.8% | 30% | 92.5% | 92.5% | 122% | 114% | 99.3% | 105% | 108% | 115% | 98.4% | 31.8% | 21.9% | 105% | 106% | 124% | 101% | 122% | 119% | 114% | 119% | 91.7% | 30.2% | 28%
ClC1=CC\2=C(NC(=O)\C(=C2N[C@@H]3CN4CCC3CC4)C5=NC6=C([NH]5)C=CC=C6)C=C1 | 116% | 98.7% | 102% | 89.2% | 53.3% | 27.7% | 24.2% | 21% | 8.58% | 3.33% | 5.63% | 95.8% | 87.5% | 83.9% | 71% | 67.4% | 22.8% | 16.2% | 11.2% | 6.87% | 2.16% | 2.19% | 99.5% | 108% | 98% | 86.8% | 63.2% | 25.4% | 19.1% | 15% | 8.88% | 2.81% | 3.39%
CNC[C@H](O)c1cccc(O)c1 | 66.9% | 68.9% | 98.8% | 23.9% | 86.8% | 93.1% | 98.1% | 103% | 103% | 101% | 108% | 93% | 55.3% | 100% | 15.4% | 88.7% | 96.7% | 91.7% | 78.1% | 98.2% | 104% | 116% | 89% | 73% | 89.5% | 19.9% | 111% | 98.8% | 101% | 110% | 110% | 98.4% | 111%
Nc1cccc2c1CN([C@H]1CCC(=O)NC1=O)C2=O | 120% | 131% | 110% | 121% | 115% | 114% | 103% | 97.6% | 81.8% | 99.5% | 89.5% |  |  |  |  |  |  |  |  |  |  |  | 109% | 108% | 117% | 111% | 120% | 109% | 111% | 103% | 103% | 88.8% | 81.4%
Cc1cc(C(=O)N2CCN(c3cccc(Cl)c3)CC2)n(-c2ccccc2)n1 | 109% | 96.7% | 102% | 102% | 109% | 96% | 92.5% | 52.6% | 25.5% | 21.7% | 18.2% | 107% | 118% | 116% | 122% | 107% | 110% | 120% | 81.5% | 34.8% | 17.5% | 15.6% | 105% | 103% | 112% | 89.4% | 114% | 100% | 93.3% | 61.1% | 24.4% | 19.5% | 18.3%
Cn1c(=O)n(-c2ccc(C(C)(C)C#N)cc2)c2c3cc(-c4cnc5ccccc5c4)ccc3ncc21 | 94% | 104% | 96% | 86.7% | 82% | 66.3% | 50.5% | 38.8% | 28.3% | 22.1% | 22.3% | 68% | 56.2% | 64.5% | 64.3% | 46% | 33.6% | 27.7% | 15% | 8.98% | 9.61% | 6.98% | 98.6% | 89% | 89.8% | 86.1% | 65.7% | 57.9% | 51.4% | 35% | 24.2% | 13.2% | 14.4%
C[S+](=O)([O-])c1ccc(-c2cnc(N)c(C(=O)Nc3ccccc3)n2)cc1 | 99.6% | 98.3% | 115% | 107% | 123% | 106% | 127% | 110% | 95.2% | 23.7% | 20.2% | 99.1% | 87.6% | 90.7% | 105% | 107% | 133% | 129% | 119% | 103% | 33.1% | 25.3% | 98.5% | 103% | 98.5% | 99.6% | 96.2% | 111% | 99.8% | 105% | 82.7% | 16% | 15.4%
CCCCCCCCCC(=O)N[C@@H](Cc1c[nH]c2ccccc12)C(=O)N[C@H](CC(N)=O)C(=O)N[C@@H](CC(=O)O)C(=O)N[C@@H]1C(=O)NCC(=O)N[C@@H](CCCN)C(=O)N[C@@H](CC(=O)O)C(=O)N[C@H](C)C(=O)N[C@@H](CC(=O)O)C(=O)NCC(=O)N[C@H](CO)C(=O)N[C@@H]([C@@H](C)CC(=O)O)C(=O)N[C@@H](CC(=O)c2ccccc2N)C(=O)O[C@@H]1C | 81.6% | 101% | 98.3% | 108% | 93.4% | 108% | 121% | 114% | 116% | 107% | 101% | 103% | 103% | 123% | 114% | 105% | 120% | 121% | 102% | 116% | 119% | 120% | 102% | 105% | 94.8% | 103% | 123% | 104% | 117% | 103% | 109% | 105% | 102%
C[C@@H](NC(=O)c1ncnc(N)c1Cl)c1ncc(C(=O)Nc2cc(C(F)(F)F)c(Cl)cn2)s1 |  |  |  |  |  |  |  |  |  |  |  | 113% | 119% | 105% | 127% | 125% | 126% | 127% | 121% | 121% | 112% | 106% | 123% | 128% | 112% | 126% | 139% | 134% | 135% | 137% | 131% | 119% | 96.2%
COc1ccc2c(c1)c(CC(=O)OCC(=O)O)c(C)n2C(=O)c1ccc(Cl)cc1 | 109% | 114% | 111% | 110% | 112% | 110% | 119% | 102% | 113% | 109% | 106% | 121% | 126% | 121% | 120% | 113% | 111% | 109% | 99.8% | 113% | 98.4% | 102% | 119% | 131% | 123% | 123% | 116% | 116% | 128% | 110% | 112% | 113% | 100%
